Our source for the inhibition and half-life values is ChEMBL document CHEMBL1130951, “A photoactivated prodrug” (Bioorg Med Chem Lett, 1998).

Each structure is given as a SMILES string.

In data set [1] the test system is DH5 alpha. Description: Compound was tested for its ability to inhibit growth of Escherichia coli DH5 alpha cells at 100 uM concentration; complete arrest of cell growth observed. It counts as functional, cell-based.
Data set [2] can be described thus: T1/2 was determined. It counts as ADME.
Data set [3] concerns DH5 alpha. Description: Compound was irradiated and tested for its ability to inhibit growth of Escherichia coli DH5 alpha cells at 100 uM concentration; cell growth almost completely inhibited. The format is functional, cell-based.
For data set [4], the system named is DH5 alpha. Description: Compound was tested for its ability to inhibit growth of Escherichia coli DH5 alpha cells at 100 uM concentration; slight growth inhibition observed. The format is functional, cell-based.

In the case of `O=c1[nH]c(=O)n([C@H]2C[C@H](O)[C@@H](CO)O2)cc1F`, the inhibition result in the data set with DH5 alpha [1] was “complete arrest of cell growth observed”.

For the compound `COc1cc(COC(=O)OC[C@H]2O[C@@H](n3cc(F)c(=O)[nH]c3=O)C[C@@H]2O)c([N+](=O)[O-])cc1OC`, the half-life in data set [2] worked out at 6 min. Besides, the inhibition result in the data set on DH5 alpha [3] and in the data set with DH5 alpha [4] was “cell growth almost completely inhibited” each time.

Broadly, the half-life is how long it takes for the measured level to halve. Read a high half-life as slow loss.
